Data as given in patent US20180147206A1, “ACTIVATION OF NEURONAL STORE-OPERATED CALCIUM ENTRY PATHWAY FOR THE TREATMENT OF ALZHEIMER'S DISEASE” (The Board of Regents of the University of Texas System, priority 2015, published 2018).

Assays:
[1] = In vitro metabolism in liver S9 fractions; type: in vitro ADME, mouse; conditions: phase I cofactors (NADPH regenerating system); 2 μM
Method: (§1) FIGS. 12A-D. NSN21778 in vitro metabolism stability, in vivo plasma pharmacokinetics, and side effect on body weight (Related to FIGS. 7A-G). (FIG. 12A) The metabolic stability of NSN21778 was evaluated in vitro after incubation with commercial liver S9 fractions in the presence of phase I (NADPH regenerating system) cofactors. Compound levels were determined by LC-MS/MS. Additionally, the stability of NSN21778 in the presence of commercial CD-1 mouse plasma was measured. (FIG. 12B) NSN21778 was dosed i.p. at 10 mg/kg to female CD-1 mice. Levels of NSN21778 in plasma and brain were evaluated by LC-MS/MS. (FIG. 12C) WTGFP, PS1KIGFP and APPKIGFP mice body weight after i.p. administrated with control solution or 10 mg/kg NSN21778 for 10 weeks. Data presented as mean±SE (n=5 mice). (FIG. 12D) Body weight gained for various treatments.
(§2) In vitro metabolism assays. Female ICR/CD-1 mouse S9 fractions were purchased from Celsis/In Vitro Technologies (Baltimore, Md.). 25 μl (0.5 mg) of S9 protein was added to a 15 ml glass screw cap tube. […] The supernatant was analyzed by LC-MS/MS. Stability in commercial mouse CD-1 plasma (Bioreclamation, Westbury, N.Y.) was measured in a similar fashion. […] Reactions were quenched with methanol as above and supernatants evaluated by LC-MS/MS. Compound half-life was determined by the method of substrate depletion as described (McNaney et al., 2008).

[2] = Stability in CD-1 mouse plasma; type: in vitro ADME; conditions: commercial CD-1 mouse plasma; 2 μM
Method: as §1, §2

TRPC6 = target: T1, TRPC6 (Homo sapiens, UniProt Q9Y210); experiment: Fura-2 Ca2+ imaging in TRPC6-transfected HEK293 cells; type: cell-based; conditions: for potentiation of OAG-induced responses: preincubation 1 μM, 100 μM OAG
T1 construct: expressed in transfected cells; host or cells: HEK293
T1 sequence (Q9Y210 1-931): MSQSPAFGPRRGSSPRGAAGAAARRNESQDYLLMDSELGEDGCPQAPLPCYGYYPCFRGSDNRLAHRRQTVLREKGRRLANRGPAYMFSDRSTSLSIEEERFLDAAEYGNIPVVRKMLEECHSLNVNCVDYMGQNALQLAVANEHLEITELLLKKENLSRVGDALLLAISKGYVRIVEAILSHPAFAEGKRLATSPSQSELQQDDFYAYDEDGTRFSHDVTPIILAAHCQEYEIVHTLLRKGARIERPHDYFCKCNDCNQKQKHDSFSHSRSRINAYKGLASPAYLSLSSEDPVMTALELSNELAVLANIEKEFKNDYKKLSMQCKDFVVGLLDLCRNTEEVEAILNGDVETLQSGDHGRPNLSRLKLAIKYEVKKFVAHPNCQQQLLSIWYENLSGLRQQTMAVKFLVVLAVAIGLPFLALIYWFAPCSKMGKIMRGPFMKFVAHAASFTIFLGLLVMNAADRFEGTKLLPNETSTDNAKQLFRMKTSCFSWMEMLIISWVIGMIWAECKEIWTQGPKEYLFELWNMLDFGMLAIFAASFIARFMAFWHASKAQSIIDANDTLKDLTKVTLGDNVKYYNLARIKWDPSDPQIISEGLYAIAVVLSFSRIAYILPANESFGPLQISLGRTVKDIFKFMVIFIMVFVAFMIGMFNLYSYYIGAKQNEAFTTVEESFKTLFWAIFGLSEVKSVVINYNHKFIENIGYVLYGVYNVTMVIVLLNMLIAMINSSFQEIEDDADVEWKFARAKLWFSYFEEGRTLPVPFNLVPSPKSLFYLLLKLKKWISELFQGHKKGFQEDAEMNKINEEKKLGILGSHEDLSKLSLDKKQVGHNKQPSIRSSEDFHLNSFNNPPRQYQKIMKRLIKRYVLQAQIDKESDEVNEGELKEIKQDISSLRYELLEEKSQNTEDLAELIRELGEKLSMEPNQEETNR

In the case of `CC(=O)Nc1ccc(CCNc2ncnc3ccc(N)cc23)cc1` [NSN21778, N-{4-[2-(6-Amino-quinazolin-4-ylamino)-ethyl]-phenyl}-acetamide], the “metabolic stability in liver S9 fractions” value [1] is reported as “generally stable”, the stability in plasma [2] is reported as “stable” and the “SOC in conditions of store depletion” value (TRPC6; GFP or TRPC6 HEK293 cells preincubated in Ca2+-free media with 1 μM Tg (data not shown)) is reported as “no additional effect”. The “Ca2+ influx” value (TRPC6; TRPC6-transfected HEK293 cells, 1 μM, 2 mM Ca2+) was “did not trigger Ca^2+ influx”, the “potentiation of OAG-induced responses” value (TRPC6; TRPC6-transfected cells, stores partially depleted (0.1 mM Ca2+)) was “significant potentiation” and the “potentiation of OAG-induced responses” value (TRPC6; control GFP cells, stores partially depleted) was “not in control GFP cells”. For the same compound, the “toxicity in injected mice” value (i.p. 10 mg/kg 3 times per week, WTGFP, PS1KIGFP and APPKIGFP mice) was “not observed any obvious toxicity” and the body weight (i.p. 10 mg/kg, following 10 weeks treatment) was “some weight loss”.
